Measurements from patent US6071947A, “Indolyl-pyrrolydenemethylpyrrole derivatives and process for their preparation” (Pharmacia & Upjohn S.p.A., priority 1997, dated 2000).
Structures can show the parent of a compound that is named as a salt. Where two headings read alike, the source gives them in different places.

Legend:
[1] = Test n° 5: in vivo bioavailability evaluation after oral administration; conditions: rat, 10 mg/kg
Protocol: In Vivo Bioavailability Evaluation
Aim of the study is to determine the pharmacokinetics and the oral bioavailability of the instant compounds in rats.
Species/strain/sex: rat/Lewis/male
No. formulations: 1 oral; 1 intravenous
No. animals/formulation: 3+2 controls (+an ulterior rat treated with the iv formulation); total 9
Dosages: iv: 1 mg salt/kg; oral: 10 mg salt/kg
Vehicles: iv: a solution at the conc. of 5 mg/ml in PEG 400/Tween 80 (6:1 v:v) was prepared, then diluted with dextrose at the final concentration of 0.5 mg/ml; oral: a solution at the concentration of 5 mg/ml in Cremophor ELP/EtOH abs (6.5:3.5 v:v) was prepared, then diluted with saline at the final concentration of 1 mg/ml
Experimental: Three cannulated rats/formulation were treated. One rat/formulation was only treated with the vehicle, as basal sample. The intravenous administration was given into the caudal vein as bolus; the oral administration by gastric gavage as solution. […] Plasma was immediately obtained by centrifugation (10000 rpm for 3 min) and stored in labelled tubes at -30° C. till analysis.
Analytical assay: the extraction of the compounds was performed by protein precipitation by adding 100 mcl of acetonitrile to 25 mcl of plasma. The concentrations of the compounds (as free bases) in plasma were determined by LC-MS method. Column: APEX CN RP 5 mc, 10×4 mm (Jones chromatography); mobil phase: 70% acetonitrile/30% 1 mM ammonium formate +0.01% triethylamine adjusted to pH 2.0 with formic acid; flow rate: 1 ml/min; injection volume: 10 mcL; oven temperature: 45° C.; MS detection by APCI using MRM positive ion; MRM transition: 330 m/z>239 m/z, retention time: 1.4 min; LLOQ: 5.03 ng/ml; ULOQ: 10060 ng/ml.

[2] = test system: Delayed-Type Hypersensitivity; assay: Test n° 4: in vivo DTH (Delayed-Type Hypersensitivity) assay, SRBC-induced footpad thickness increase; set-up: species or system female C57 B1/6 mice; conditions: Mus musculus, read-out: DTH ED30 os
Protocol: Comparative in Vivo Activity Evaluation by DTH Assay
The immunosuppressive activity of the compounds of the invention was evaluated in vivo by DTH (Delayed-Type Hypersensitivity) assay. According to the test, sheep red blood cells (SRBC) (1×10^5 cells) suspended in 500 mcL saline, were injected i.v. into the tail vein of female C57 B1/6 mice (8-9 week old). Five days later 1×10^8 SRBC suspended in 50 mcL saline were injected into the left hind footpad. The increase in footpad thickness was measured with a dial micrometer 24 h after challenge. The test compounds were given daily for six days at different doses starting on the day of priming.

[3] = test system: Th2 murine cells D10-G4.1 (ATCC TIB 224); assay: Inhibition of IL-2 proliferation induced activity (D10 cells, 3H-TdR uptake); assay type: cell-based
Protocol: Inhibition of IL-2 Proliferation Induced Activity
The Th2 murine cells D10-G4.1 (ATCC TIB 224) are IL-2 dependent for their growth. They are cultured in complete RPMI 1640 medium enriched with rhIL-2 (6 ng/ml) and ConA (6 ng/ml).
For testing the inhibitory effects of the compounds of the invention on IL-2 activity, D 10 cells are washed twice with complete medium, resuspended at 10^5 cells/ml in the same medium and triplicately distributed (10^4 cells/well) in flat bottomed 96 well plates. […] and […] at different concentrations are simultaneously added to the cells. The cultures are then incubated at 37° C. in a humidified 5% CO2 incubator for 48 h, the last 18 h in the presence of 0.2 μCi of ^3 H-TdR.
Uptake of 3H-TdR in the cells (cpm) is taken as a measure of cell proliferation.

[4] = oral (os), daily for six days, dose able to reduce by 30% the footpad thickness increase compared to controls, 24 h after challenge, mice

bioavailability ([1]; plasma) | Structure (SMILES) | bioavailability ([1]; in vivo) | ED30 ([2]; 24 h) | ED30 [2, 4] | 3HTdR uptake ([3]; 10 ng/ml, mean cpm from triplicate wells (SE), vehicle 61231 (1193)) | 3HTdR uptake ([3]; 30 ng/ml, mean cpm from triplicate wells (SE), vehicle 61231 (1193)) | 3HTdR uptake ([3]; 0.1 ug/mL) | inhibition at 0.01 µg/mL ([3]; Mus musculus, 10 ng/ml, 48 h, read-out: % inhibition vs vehicle) | inhibition at 0.03 µg/mL ([3]; Mus musculus, 30 ng/ml, 48 h, read-out: % inhibition vs vehicle) | inhibition at 0.1 µg/mL ([3]; Mus musculus, 100 ng/ml, 48 h, read-out: % inhibition vs vehicle)
 | CCCCCCCCCCCC1=NC(=Cc2[nH]c(-c3cc4ccccc4[nH]3)cc2OC)C=C1.Cl [PNU 166823, 2-(1H-indol-2-yl)-4-methoxy-5-[(5-undecyl-2H-pyrrol-2-ylidene)methyl]-1H-pyrrole, hydrochloride] | 5% | 8.8 mg/kg |  |  |  |  |  |  | 
38% | CCCCCC1=NC(=Cc2[nH]c(-c3cc4ccccc4[nH]3)cc2OC)C=C1.Cl [PNU 190192, 2-(1H-indol-2-yl)-4-methoxy-5-[(5-pentyl-2H-pyrrol-2-ylidene)methyl]-1H-pyrrole, hydrochloride] |  |  | 7.1 mg/kg | 57325 (1280) cpm | 29681 (1528) cpm | 1388 (62) cpm | 6% | 52% | 98%
82% | COc1cc(-c2cc3ccccc3[nH]2)[nH]c1C=C1C=CC(C)=N1.Cl [PNU 190364, 2-(1H-indol-2-yl)-4-methoxy-5-[(5-methyl-2H-pyrrol-2-ylidene)methyl]-1H-pyrrole, hydrochloride] |  |  | 6.6 mg/kg |  |  |  |  |  | 
20% | CC1=NC(=Cc2[nH]c(-c3cc4ccccc4[nH]3)cc2OCc2ccccc2)C=C1 [PNU 190537, 2-(1H-indol-2-yl)-4-benzyloxy-5-[(5-methyl-2H-pyrrol-2-ylidene)methyl]-1H-pyrrole, hydrochloride] |  |  | 11.9 mg/kg |  |  |  |  |  | 
